Drawing on ChEMBL document CHEMBL4828714, “Mutasynthesis of Antibacterial Halogenated Actinomycin Analogues” (J Nat Prod, 2021), this text covers IC50 and MIC for four compounds.

For orientation: pIC50 means the IC50 on a negative log10 scale, so that one unit is a factor of ten. Usually MIC stands for the lowest concentration that inhibits growth of the organism.

pIC50: −log10 of the molar value. Values after ≈ are worked out from the molar mass of the structure shown.

One test deals with RKO. As to the kind of experiment: Cytotoxicity against human RKO cells assessed as growth inhibition incubated for 68 hrs by MTT assay. It is filed as functional, cell-based. In general terms: Formazan colour is commonly taken as a measure of viable cells.
Test [1] concerns Staphylococcus aureus. Nature of the test: Antimicrobial activity against Staphylococcus aureus Sau 1862 assessed as inhibition of bacterial growth incubated for 16 to 18 hrs by broth micro dilution technique. To be noted: time 16-18 hrs. It is filed as functional.
The test system of test [2] is Staphylococcus aureus. As to the kind of experiment: Antimicrobial activity against Staphylococcus aureus CCAM 3090 assessed as inhibition of bacterial growth incubated for 16 to 18 hrs by broth micro dilution technique. To be noted: time 16-18 hrs. The class given is functional.
For a further test, the system named is A549. As to the kind of experiment: Cytotoxicity against human A549 cells assessed as growth inhibition incubated for 68 hrs by MTT assay. Particulars: A549, 68 h. The class given is functional, cell-based.
Another test deals with Enterococcus faecalis. As to the kind of experiment: Antimicrobial activity against Enterococcus faecalis ATCC 29212 assessed as inhibition of bacterial growth incubated for 16 to 18 hrs by broth micro dilution technique. The class given is functional. Particulars: time 16-18 hrs.
In a further test the test system is HL-60. As to the kind of experiment: Cytotoxicity against human HL-60 cells assessed as growth inhibition incubated for 68 hrs by MTT assay. It is filed as functional, cell-based. Particulars: HL-60, 68 h.
Test [3] concerns Staphylococcus aureus. Nature of the test: Antimicrobial activity against Staphylococcus aureus Sau 745524 assessed as inhibition of bacterial growth incubated for 16 to 18 hrs by broth micro dilution technique. It is filed as functional. To be noted: time 16-18 hrs.
A further test concerns BEAS-2B. Nature of the test: Cytotoxicity against human BEAS-2B cells assessed as growth inhibition incubated for 68 hrs by MTT assay. It is filed as cell-based.
Test [4] deals with Staphylococcus aureus. As to the kind of experiment: Antimicrobial activity against Staphylococcus aureus Sau 991 assessed as inhibition of bacterial growth incubated for 16 to 18 hrs by broth micro dilution technique. The class given is functional. To be noted: time 16-18 hrs.
For test [5], the system named is Staphylococcus aureus. Nature of the test: Antimicrobial activity against Staphylococcus aureus Sau 718306 assessed as inhibition of bacterial growth incubated for 16 to 18 hrs by broth micro dilution technique. It is filed as functional. Particulars: time 16-18 hrs.
A further test deals with MCF7. Nature of the test: Cytotoxicity against human MCF7 cells assessed as growth inhibition incubated for 68 hrs by MTT assay. It is filed as functional, cell-based. Particulars: MCF7, 68 h.
The subject of test [6] is Staphylococcus aureus. Nature of the test: Antimicrobial activity against Staphylococcus aureus Sau 6917 assessed as inhibition of bacterial growth incubated for 16 to 18 hrs by broth micro dilution technique. It is filed as functional. Particulars: time 16-18 hrs.
Test [7] concerns Staphylococcus aureus. Nature of the test: Antimicrobial activity against Staphylococcus aureus Sau 16162 assessed as inhibition of bacterial growth incubated for 16 to 18 hrs by broth micro dilution technique. To be noted: time 16-18 hrs. The class given is functional.
Test [8] has as its system Staphylococcus aureus. As to the kind of experiment: Antimicrobial activity against Staphylococcus aureus ATCC 29213 assessed as inhibition of bacterial growth incubated for 16 to 18 hrs by broth micro dilution technique. The class given is functional. Particulars: time 16-18 hrs.
Another test concerns L02. Nature of the test: Cytotoxicity against human L02 cells assessed as growth inhibition incubated for 68 hrs by MTT assay. It is filed as cell-based. To be noted: L02, 68 h.
In another test the test system is Micrococcus luteus. As to the kind of experiment: Antimicrobial activity against Micrococcus luteus ML01 assessed as inhibition of bacterial growth incubated for 16 to 18 hrs by broth micro dilution technique. To be noted: time 16-18 hrs. The class given is functional.
For the next test, the system named is Bacillus thuringiensis. Nature of the test: Antimicrobial activity against Bacillus thuringiensis BT01 assessed as inhibition of bacterial growth incubated for 16 to 18 hrs by broth micro dilution technique. It is filed as functional. Particulars: time 16-18 hrs.
In a further test the test system is HeLa. As to the kind of experiment: Cytotoxicity against human HeLa cells assessed as growth inhibition incubated for 68 hrs by MTT assay. It is filed as functional, cell-based.
A further test has as its system Enterococcus faecium. As to the kind of experiment: Antimicrobial activity against Enterococcus faecium ATCC 35682 assessed as inhibition of bacterial growth incubated for 16 to 18 hrs by broth micro dilution technique. It is filed as functional. Particulars: time 16-18 hrs.
In a further test the test system is Candida albicans. As to the kind of experiment: Antimicrobial activity against Candida albicans assessed as inhibition of bacterial growth incubated for 16 to 18 hrs by broth micro dilution technique. The class given is functional. To be noted: time 16-18 hrs.
A further test deals with HepG2. As to the kind of experiment: Cytotoxicity against human HepG2 cells assessed as growth inhibition incubated for 68 hrs by MTT assay. It is filed as functional, cell-based. To be noted: HepG2, 68 h.

`CC(C)[C@H]1C(=O)O[C@H](C)[C@H](NC(=O)c2c3nc4c(C(=O)N[C@@H]5C(=O)N[C@H](C(C)C)C(=O)N6CCC[C@H]6C(=O)N(C)CC(=O)N(C)[C@@H](C(C)C)C(=O)O[C@@H]5C)ccc(Cl)c4oc-3c(Cl)c(=O)c2N)C(=O)N[C@H](C(C)C)C(=O)N2CCC[C@H]2C(=O)N(C)CC(=O)N1C`: the pIC50 was 4.95 in the test on RKO; 5.35 in the test on A549; 6.70 in the test with HL-60; 6.00 in the test with BEAS-2B; 4.76 in the test with MCF7; 5.34 in the test on L02. The pIC50 in the test on HeLa is 4.29; in the test on HepG2, 5.55. The MIC in the test on Staphylococcus aureus [1] worked out at 16 µg/mL (≈ 12.3 µM); with Staphylococcus aureus [2], 32 µg/mL (≈ 24.7 µM); in the test on Enterococcus faecalis, 16 µg/mL (≈ 12.3 µM); with Staphylococcus aureus [3], 16 µg/mL (≈ 12.3 µM); in the test with Staphylococcus aureus [4] it was 16 µg/mL (≈ 12.3 µM); in the test with Staphylococcus aureus [5] it was 16 µg/mL (≈ 12.3 µM). Moreover, the MIC with Staphylococcus aureus [6] was 32 µg/mL (≈ 24.7 µM); with Staphylococcus aureus [7], 16 µg/mL (≈ 12.3 µM); with Staphylococcus aureus [8], 32 µg/mL (≈ 24.7 µM); in the test on Micrococcus luteus, 0.06 µg/mL (≈ 0.0463 µM); with Bacillus thuringiensis it was 0.5 µg/mL (≈ 0.386 µM); with Enterococcus faecium it was 0.13 µg/mL (≈ 0.1 µM). Also, the MIC in the test with Candida albicans amounted to 16 µg/mL (≈ 12.3 µM).
In the case of `CC(C)[C@H]1C(=O)O[C@H](C)[C@H](NC(=O)c2c3nc4c(C(=O)N[C@@H]5C(=O)N[C@H](C(C)C)C(=O)N6CCC[C@H]6C(=O)N(C)CC(=O)N(C)[C@@H](C(C)C)C(=O)O[C@@H]5C)ccc(F)c4oc-3c(F)c(=O)c2N)C(=O)N[C@H](C(C)C)C(=O)N2CCC[C@H]2C(=O)N(C)CC(=O)N1C`, the pIC50 with RKO was less than 4.30; in the test on A549 it was less than 4.30; in the test with HL-60, less than 4.30; in the test with BEAS-2B, less than 4.30; in the test with MCF7, 4.77; in the test with L02 it was less than 4.30. Moreover, the pIC50 with HeLa and with HepG2 was less than 4.30 in each case. Further, the MIC came out at 32 µg/mL (≈ 25.3 µM) with Staphylococcus aureus [1]; 32 µg/mL (≈ 25.3 µM) with Staphylococcus aureus [2]; 64 µg/mL (≈ 50.7 µM) in the test on Enterococcus faecalis; 32 µg/mL (≈ 25.3 µM) in the test on Staphylococcus aureus [3]; 32 µg/mL (≈ 25.3 µM) in the test on Staphylococcus aureus [4]; 32 µg/mL (≈ 25.3 µM) in the test with Staphylococcus aureus [5]. Further, the MIC in the test on Staphylococcus aureus [6] came to 32 µg/mL (≈ 25.3 µM); with Staphylococcus aureus [7], 32 µg/mL (≈ 25.3 µM); in the test on Staphylococcus aureus [8] it was 32 µg/mL (≈ 25.3 µM); in the test with Micrococcus luteus, 2 µg/mL (≈ 1.58 µM); in the test with Bacillus thuringiensis, 16 µg/mL (≈ 12.7 µM); with Enterococcus faecium, 4 µg/mL (≈ 3.17 µM). For the same compound, the minimum inhibitory concentration (MIC) with Candida albicans came out at 64 µg/mL (≈ 50.7 µM).
As for `CC(C)[C@H]1C(=O)O[C@H](C)[C@H](NC(=O)c2c3nc4c(C(=O)N[C@@H]5C(=O)N[C@H](C(C)C)C(=O)N6CCC[C@H]6C(=O)N(C)CC(=O)N(C)[C@@H](C(C)C)C(=O)O[C@@H]5C)ccc(Br)c4oc-3c(Br)c(=O)c2N)C(=O)N[C@H](C(C)C)C(=O)N2C[C@@H](O)C[C@H]2C(=O)N(C)CC(=O)N1C`, the pIC50 in the test with RKO was 5.89; with A549, 4.27; in the test with HL-60, 6.70; with BEAS-2B, 6.05; in the test with MCF7, 5.54; with L02 it was 5.51. Moreover, the pIC50 in the test with HeLa is 5.62; with HepG2, 5.52. Also, the MIC in the test with Staphylococcus aureus [1] was found to be 16 µg/mL (≈ 11.4 µM); in the test with Staphylococcus aureus [2], 16 µg/mL (≈ 11.4 µM); in the test on Enterococcus faecalis, 32 µg/mL (≈ 22.8 µM); in the test on Staphylococcus aureus [3], 16 µg/mL (≈ 11.4 µM); with Staphylococcus aureus [4] it was 16 µg/mL (≈ 11.4 µM); in the test on Staphylococcus aureus [5], 16 µg/mL (≈ 11.4 µM). Further, the MIC with Staphylococcus aureus [6] was found to be 32 µg/mL (≈ 22.8 µM); with Staphylococcus aureus [7], 16 µg/mL (≈ 11.4 µM); in the test with Staphylococcus aureus [8] it was 16 µg/mL (≈ 11.4 µM); in the test with Micrococcus luteus, 0.5 µg/mL (≈ 0.357 µM); in the test with Bacillus thuringiensis, 2 µg/mL (≈ 1.43 µM); with Enterococcus faecium, 2 µg/mL (≈ 1.43 µM). Further, the MIC in the test on Candida albicans came to 8 µg/mL (≈ 5.71 µM).
In the case of `CC(C)[C@H]1C(=O)O[C@H](C)[C@H](NC(=O)c2c3nc4c(C(=O)N[C@@H]5C(=O)N[C@H](C(C)C)C(=O)N6CCC[C@H]6C(=O)N(CO)CC(=O)N(C)[C@@H](C(C)C)C(=O)O[C@@H]5C)ccc(Br)c4oc-3c(Br)c(=O)c2N)C(=O)N[C@H](C(C)C)C(=O)N2CCC[C@H]2C(=O)N(C)CC(=O)N1C`, the pIC50 is 4.61 in the test on RKO; 4.42 in the test on A549; less than 4.30 with HL-60; 5.24 in the test on BEAS-2B; 4.89 in the test with MCF7; 4.88 with L02. Further, the pIC50 in the test on HeLa and in the test on HepG2 was less than 4.30 in each case. Besides, the MIC came out at 32 µg/mL (≈ 22.8 µM) with Staphylococcus aureus [1]; 32 µg/mL (≈ 22.8 µM) with Staphylococcus aureus [2]; 32 µg/mL (≈ 22.8 µM) with Enterococcus faecalis; 32 µg/mL (≈ 22.8 µM) with Staphylococcus aureus [3]; 32 µg/mL (≈ 22.8 µM) in the test with Staphylococcus aureus [4]; 16 µg/mL (≈ 11.4 µM) in the test on Staphylococcus aureus [5]. The MIC with Staphylococcus aureus [6] amounted to 32 µg/mL (≈ 22.8 µM); in the test on Staphylococcus aureus [7] it was 32 µg/mL (≈ 22.8 µM); in the test on Staphylococcus aureus [8], 32 µg/mL (≈ 22.8 µM); in the test with Micrococcus luteus, 2 µg/mL (≈ 1.43 µM); in the test with Bacillus thuringiensis, 4 µg/mL (≈ 2.85 µM); in the test on Enterococcus faecium it was 4 µg/mL (≈ 2.85 µM). Also, the MIC in the test on Candida albicans stood at 8 µg/mL (≈ 5.71 µM).
